Measured values reported in ChEMBL document CHEMBL1136317, “A general synthesis of 1-aryl carbamoyl-2-alkyl-4-aryl substituted semicarbazides as nonbasic factor Xa inhibitors” (Bioorg Med Chem Lett, 2003).

Molecular target: Coagulation factor X (Homo sapiens, UniProt P00742)
Test: Inhibitory activity against human Coagulation factor X in a purified enzyme system

Coagulation factor X, sequence (P00742 41-179 limits assumed): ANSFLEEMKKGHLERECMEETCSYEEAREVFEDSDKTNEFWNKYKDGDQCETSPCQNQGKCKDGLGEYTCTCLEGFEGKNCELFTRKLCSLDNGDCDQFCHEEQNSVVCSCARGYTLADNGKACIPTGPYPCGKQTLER
Coagulation factor X, sequence (P00742 235-488 limits assumed): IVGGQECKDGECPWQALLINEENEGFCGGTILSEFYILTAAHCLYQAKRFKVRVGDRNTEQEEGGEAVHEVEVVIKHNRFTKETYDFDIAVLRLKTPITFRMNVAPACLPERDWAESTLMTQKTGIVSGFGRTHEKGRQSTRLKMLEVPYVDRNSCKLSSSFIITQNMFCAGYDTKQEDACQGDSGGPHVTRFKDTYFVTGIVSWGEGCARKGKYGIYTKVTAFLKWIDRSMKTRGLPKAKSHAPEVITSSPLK

Row | IC50 | SMILES
1 | 0.017 µM | CCC(NC(=O)Nc1ccc(Cl)cc1)C(=O)Nc1ccc(N2CCOCC2=O)cc1 (single isomer, unassigned)
2 | 0.078 µM | CC(NC(=O)Nc1ccc(Cl)cc1)C(=O)Nc1ccc(N2CCOCC2=O)cc1 (single isomer, unassigned)
